Source: patent US8003785B2 (Takeda Pharmaceutical Company Limited, priority 2008, dated 2011)

biological target: T1, PLK1 (Homo sapiens, UniProt P53350); assay: Biochemical Characterization Assay: HTRF kinase assay, GST-PLK1 phosphorylation of GST-p53; conditions: GST-PLK1, GST-p53 substrate, ATP
T1 construct: Full-length, active GST-PLK1 is purified from Sf9 insect cells; made in house; host or cells: Sf9 insect cells
Method in brief: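 Full-length active GST-PLK1 (Sf9, 3 ug/mL) phosphorylated full-length GST-p53 (E. coli) in Kinase Assay Buffer for 35 min at 37 °C. Stopped with EDTA; phospho-p53 detected by HTRF with anti-phospho-p53, Eu-anti-rabbit and APC-anti-GST antibodies.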

T1 sequence (P53350 whole entry): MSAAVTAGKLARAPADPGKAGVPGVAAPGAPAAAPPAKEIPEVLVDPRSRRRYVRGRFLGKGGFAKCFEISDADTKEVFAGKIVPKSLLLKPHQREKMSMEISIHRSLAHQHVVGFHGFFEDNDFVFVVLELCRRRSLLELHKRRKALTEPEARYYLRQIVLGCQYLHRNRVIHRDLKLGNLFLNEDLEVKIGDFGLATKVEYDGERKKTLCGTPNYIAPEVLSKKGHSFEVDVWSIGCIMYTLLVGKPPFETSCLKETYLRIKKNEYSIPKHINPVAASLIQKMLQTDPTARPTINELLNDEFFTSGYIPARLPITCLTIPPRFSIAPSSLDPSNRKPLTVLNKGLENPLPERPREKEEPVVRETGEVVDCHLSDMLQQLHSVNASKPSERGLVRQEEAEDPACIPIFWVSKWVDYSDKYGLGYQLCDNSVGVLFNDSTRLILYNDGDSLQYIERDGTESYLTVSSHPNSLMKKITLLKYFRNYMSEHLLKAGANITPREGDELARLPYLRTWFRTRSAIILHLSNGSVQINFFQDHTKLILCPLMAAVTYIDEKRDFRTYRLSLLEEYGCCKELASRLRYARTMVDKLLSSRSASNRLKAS

IC50 [nM]	SMILES
1 to 50	COc1cc(C(=O)NC2CCN(C(=O)OCC3c4ccccc4-c4ccccc43)CC2)ccc1Nc1ncc2c(n1)N(C1CCCC1)CC(F)(F)C(=O)N2C [Example I-70, 4-[4-(9-cyclopentyl-7,7-difluoro-5-methyl-6-oxo-6,7,8,9-tetrahydro-5H-pyrimido[4,5-b][1,4]diazepin-2-ylamino)-3-methoxy-benzoylamino]-piperidine-1-carboxylic acid 9H-fluoren-9-ylmethyl ester]
51 to 500	COc1cc(C(=O)NC2CCN(C(=O)OC(C)(C)C)CC2)ccc1Nc1ncc2c(n1)N(C1CCCC1)CC(F)(F)C(=O)N2C [Example I-71, 4-[4-(9-cyclopentyl-7,7-difluoro-5-methyl-6-oxo-6,7,8,9-tetrahydro-5H-pyrimido[4,5-b][1,4]diazepin-2-ylamino)-3-methoxy-benzoylamino]-piperidine-1-carboxylic acid tert-butyl ester]
1 to 50	COc1cc(C(=O)NC2CCNCC2)ccc1Nc1ncc2c(n1)N(C1CCCC1)CC(F)(F)C(=O)N2C [Example I-72, 4-(9-cyclopentyl-7,7-difluoro-5-methyl-6-oxo-6,7,8,9-tetrahydro-5H-pyrimido[4,5-b][1,4]diazepin-2-ylamino)-3-methoxy-N-piperidin-4-yl-benzamide]
51 to 500	COc1cc(C(=O)NCCCNC(=O)OCC2c3ccccc3-c3ccccc32)ccc1Nc1ncc2c(n1)N(C1CCCC1)CC(F)(F)C(=O)N2C [Example I-73, {3-[4-(9-cyclopentyl-7,7-difluoro-5-methyl-6-oxo-6,7,8,9-tetrahydro-5H-pyrimido[4,5-b][1,4]diazepin-2-ylamino)-3-methoxy-benzoylamino]-propyl}-carbamic acid 9H-fluoren-9-ylmethyl ester]
1 to 50	COc1cc(C(=O)NCCCN)ccc1Nc1ncc2c(n1)N(C1CCCC1)CC(F)(F)C(=O)N2C [Example I-74, N-(3-amino-propyl)-4-(9-cyclopentyl-7,7-difluoro-5-methyl-6-oxo-6,7,8,9-tetrahydro-5H-pyrimido[4,5-b][1,4]diazepin-2-ylamino)-3-methoxy-benzamide]
1 to 50	COc1cc(C(=O)NC2CCN(CCF)CC2)ccc1Nc1ncc2c(n1)N(C1CCCC1)CC(F)(F)C(=O)N2C [Example I-75, 4-(9-cyclopentyl-7,7-difluoro-5-methyl-6-oxo-6,7,8,9-tetrahydro-5H-pyrimido[4,5-b][1,4]diazepin-2-ylamino)-N-[1-(2-fluoro-ethyl)-piperidin-4-yl]-3-methoxy-benzamide]
1 to 50	COc1cc(C(=O)NC2CCN(CCCS(C)(=O)=O)CC2)ccc1Nc1ncc2c(n1)N(C1CCCC1)CC(F)(F)C(=O)N2C [Example I-76, 4-(9-cyclopentyl-7,7-difluoro-5-methyl-6-oxo-6,7,8,9-tetrahydro-5H-pyrimido[4,5-b][1,4]diazepin-2-ylamino)-N-[1-(3-methanesulfonyl-propyl)-piperidin-4-yl]-3-methoxy-benzamide]
1 to 50	COc1cc(C(=O)NC2CCN(CC(F)(F)F)CC2)ccc1Nc1ncc2c(n1)N(C1CCCC1)CC(F)(F)C(=O)N2C [Example I-77, 4-(9-cyclopentyl-7,7-difluoro-5-methyl-6-oxo-6,7,8,9-tetrahydro-5H-pyrimido[4,5-b][1,4]diazepin-2-ylamino)-3-methoxy-N-[1-(2,2,2-trifluoro-ethyl)-piperidin-4-yl]-benzamide]
1 to 50	COc1cc(C(=O)NCCCN(C)C)ccc1Nc1ncc2c(n1)N(C1CCCC1)CC(F)(F)C(=O)N2C [Example I-78, 4-(9-cyclopentyl-7,7-difluoro-5-methyl-6-oxo-6,7,8,9-tetrahydro-5H-pyrimido[4,5-b][1,4]diazepin-2-ylamino)-N-(3-dimethylamino-propyl)-3-methoxy-benzamide]
1 to 50	COc1cc(C(=O)NCCCN2CCOCC2)ccc1Nc1ncc2c(n1)N(C1CCCC1)CC(F)(F)C(=O)N2C [Example I-79, 4-(9-cyclopentyl-7,7-difluoro-5-methyl-6-oxo-6,7,8,9-tetrahydro-5H-pyrimido[4,5-b][1,4]diazepin-2-ylamino)-3-methoxy-N-(3-morpholin-4-yl-propyl)-benzamide]
1 to 50	COc1cc(C(=O)NCCCN2CCCC2)ccc1Nc1ncc2c(n1)N(C1CCCC1)CC(F)(F)C(=O)N2C [Example I-80, 4-(9-cyclopentyl-7,7-difluoro-5-methyl-6-oxo-6,7,8,9-tetrahydro-5H-pyrimido[4,5-b][1,4]diazepin-2-ylamino)-3-methoxy-N-(3-pyrrolidin-1-yl-propyl)-benzamide]
51 to 500	COc1cc(C(=O)N[C@@H]2CCN(C(=O)OC(C)(C)C)C2)ccc1Nc1ncc2c(n1)N(C1CCCC1)CC(F)(F)C(=O)N2C [Example I-81, R-3-[4-(9-cyclopentyl-7,7-difluoro-5-methyl-6-oxo-6,7,8,9-tetrahydro-5H-pyrimido[4,5-b][1,4]diazepin-2-ylamino)-3-methoxy-benzoylamino]-pyrrolidine-1-carboxylic acid tert-butyl ester]
1 to 50	COc1cc(C(=O)N[C@H]2CCN(C(=O)OC(C)(C)C)C2)ccc1Nc1ncc2c(n1)N(C1CCCC1)CC(F)(F)C(=O)N2C [Example I-82, S-3-[4-(9-cyclopentyl-7,7-difluoro-5-methyl-6-oxo-6,7,8,9-tetrahydro-5H-pyrimido[4,5-b][1,4]diazepin-2-ylamino)-3-methoxy-benzoylamino]-pyrrolidine-1-carboxylic acid tert-butyl ester]
1 to 50	COc1cc(C(=O)N[C@H]2CCNC2)ccc1Nc1ncc2c(n1)N(C1CCCC1)CC(F)(F)C(=O)N2C [Example I-83, S-4-(9-cyclopentyl-7,7-difluoro-5-methyl-6-oxo-6,7,8,9-tetrahydro-5H-pyrimido[4,5-b][1,4]diazepin-2-ylamino)-3-methoxy-N—(S)-pyrrolidin-3-yl-benzamide]
1 to 50	COc1cc(C(=O)NCCCN2CCCCC2)ccc1Nc1ncc2c(n1)N(C1CCCC1)CC(F)(F)C(=O)N2C [Example I-84, 4-(9-cyclopentyl-7,7-difluoro-5-methyl-6-oxo-6,7,8,9-tetrahydro-5H-pyrimido[4,5-b][1,4]diazepin-2-ylamino)-3-methoxy-N-(3-piperidin-1-yl-propyl)-benzamide]
1 to 50	COc1cc(C(=O)NC2CC(C)(C)N(C)C(C)(C)C2)ccc1Nc1ncc2c(n1)N(C1CCCC1)CC(F)(F)C(=O)N2C [Example I-85, 4-(9-cyclopentyl-7,7-difluoro-5-methyl-6-oxo-6,7,8,9-tetrahydro-5H-pyrimido[4,5-b][1,4]diazepin-2-ylamino)-3-methoxy-N-(1,2,2,6,6-pentamethyl-piperidin-4-yl)-benzamide]
1 to 50	COc1cc(C(=O)NCCCN2CCN(C)CC2)ccc1Nc1ncc2c(n1)N(C1CCCC1)CC(F)(F)C(=O)N2C [Example I-87, 4-(9-cyclopentyl-7,7-difluoro-5-methyl-6-oxo-6,7,8,9-tetrahydro-5H-pyrimido[4,5-b][1,4]diazepin-2-ylamino)-3-methoxy-N-[3-(4-methyl-piperazin-1-yl)-propyl]-benzamide]
1 to 50	COc1cc(C(=O)NC2CCN(C(=O)C(C)(C)N)CC2)ccc1Nc1ncc2c(n1)N(C1CCCC1)CC(F)(F)C(=O)N2C [Example I-88, N-[1-(2-amino-2-methyl-propionyl)-piperidin-4-yl]-4-(9-cyclopentyl-7,7-difluoro-5-methyl-6-oxo-6,7,8,9-tetrahydro-5H-pyrimido[4,5-b][1,4]diazepin-2-ylamino)-3-methoxy-benzamide]
1 to 50	COc1cc(C(=O)N[C@@H]2CCNC(=O)C2)ccc1Nc1ncc2c(n1)N(C1CCCC1)CC(F)(F)C(=O)N2C [Example I-89, R-4-(9-cyclopentyl-7,7-difluoro-5-methyl-6-oxo-6,7,8,9-tetrahydro-5H-pyrimido[4,5-b][1,4]diazepin-2-ylamino)-3-methoxy-N-(2-oxo-piperidin-4-yl)-benzamide]
1 to 50	COc1cc(C(=O)N[C@H]2CCNC(=O)C2)ccc1Nc1ncc2c(n1)N(C1CCCC1)CC(F)(F)C(=O)N2C [Example I-90, S-4-(9-cyclopentyl-7,7-difluoro-5-methyl-6-oxo-6,7,8,9-tetrahydro-5H-pyrimido[4,5-b][1,4]diazepin-2-ylamino)-3-methoxy-N-(2-oxo-piperidin-4-yl)-benzamide]
1 to 50	COc1cc(C(=O)NCC2CN(C(=O)OC(C)(C)C)C2)ccc1Nc1ncc2c(n1)N(C1CCCC1)CC(F)(F)C(=O)N2C [Example I-91, 3-{[4-(9-cyclopentyl-7,7-difluoro-5-methyl-6-oxo-6,7,8,9-tetrahydro-5H-pyrimido[4,5-b][1,4]diazepin-2-ylamino)-3-methoxy-benzoylamino]-methyl}-azetidine-1-carboxylic acid tert-butyl ester]
51 to 500	COc1cc(C(=O)NCC2CCN(C(=O)OC(C)(C)C)C2)ccc1Nc1ncc2c(n1)N(C1CCCC1)CC(F)(F)C(=O)N2C (stereo not drawn) [Example I-92, 3-{[4-(9-cyclopentyl-7,7-difluoro-5-methyl-6-oxo-6,7,8,9-tetrahydro-5H-pyrimido[4,5-b][1,4]diazepin-2-ylamino)-3-methoxy-benzoylamino]-methyl}-pyrrolidine-1-carboxylic acid tert-butyl ester]
1 to 50	COc1cc(C(=O)NCC2CCNC2)ccc1Nc1ncc2c(n1)N(C1CCCC1)CC(F)(F)C(=O)N2C (stereo not drawn) [Example I-93, 4-(9-cyclopentyl-7,7-difluoro-5-methyl-6-oxo-6,7,8,9-tetrahydro-5H-pyrimido[4,5b][1,4]diazepin-2-ylamino)-3-methoxy-N-pyrrolidin-3-ylmethyl-benzamide]
1 to 50	COc1cc(C(=O)NCCCN2CCN(C(=O)OC(C)(C)C)CC2)ccc1Nc1ncc2c(n1)N(C1CCCC1)CC(F)(F)C(=O)N2C [Example I-94, 4-{3-[4-(9-cyclopentyl-7,7-difluoro-5-methyl-6-oxo-6,7,8,9-tetrahydro-5H-pyrimido[4,5-b][1,4]diazepin-2-ylamino)-3-methoxy-benzoylamino]-propyl}-piperazine-1-carboxylic acid tert-butyl ester]
